# Data reported in patent publication US9993494B2, “Compositions and methods for treating fibrotic disease” (eFFECTOR Therapeutics, Inc., priority 2014, dated 2018).
# Test system: normal human lung fibroblasts
# Assay: Ribosomal profiling: translational efficiency in TGFβ-treated fibroblasts
# Type: cell-based
# Conditions: TGFβ-treated fibroblasts
# Procedure: Ribosomal profiling allows for measurement of changes in transcription and translation on a genome-wide basis accompanying TGFβ-dependent transformation of fibroblasts to myofibroblasts. Ribosomal profiles of the TGFβ-treated fibroblasts from Example 1 (about 6×10^6 cells/10 cm plate) were prepared and analyzed for changes in translational efficiencies with respect to potential disease-associated cellular changes accompanying this TGFβ-induced transformation.
# Briefly, cells were washed with cold PBS supplemented with cycloheximide and lysed with 1× mammalian cell lysis buffer for 10 minutes on ice. Lysates were clarified by centrifugation for 10 minutes at 14,000 rpm and supernatants were collected. Cell lysates were processed to generate ribosomal protected fragments and total mRNA according to the instructions included with the ARTseq Ribosome Profiling Kit (Illumina, San Diego, Calif.). Sequencing of total RNA (RNA) and of ribosome-protected fragments of RNA (RPF) was carried out using RNA-Seq methodology according to the manufacturer's instructions (Illumina). To analyze the ribosomal profiles, RNA-Seq reads were processed with tools from the FASTX-Toolkit (fastq_quality_trimmer, fastx_clipper and fastx_trimmer). Unprocessed and processed reads were evaluated for a variety of quality measures using FastQC, and processed reads were mapped to the human genome using TopHat (see, e.g., Trapnell et al., Bioinformatics 25:1105, 2009). Gene-by-gene assessment of the number of fragments strictly and uniquely mapping to the coding region of each gene was conducted using HTSeq-count, a component of the HTSeq package. […] Genes with low counts in either RPF or RNA were excluded from differential analyses. Pathway and network analyses of differential data were conducted using Ingenuity Pathway Analysis (IPA).
smiles,measurement,setting,value
"Cc1ccc(=O)n(-c2ccccc2)c1 [pirfenidone, 5-methyl-1-phenylpyridin-2-one]",renormalizing the translational profile of DNASE1L1,ENSG00000013563,− (− = <0.9)
same,renormalizing the translational profile of KITLG,ENSG00000049130,− (− = <0.9)
same,renormalizing the translational profile of ADAMTS6,ENSG00000049192,− (− = <0.9)
same,renormalizing the translational profile of LETMD1,ENSG00000050426,− (− = <0.9)
same,renormalizing the translational profile of PLEKHA5,ENSG00000052126,− (− = <0.9)
same,renormalizing the translational profile of EIF4B,ENSG00000063046,+ (+ = 0.9 to 1.5)
same,renormalizing the translational profile of RPL18,ENSG00000063177,+ (+ = 0.9 to 1.5)
same,renormalizing the translational profile of HIPK2,ENSG00000064393,− (− = <0.9)
same,renormalizing the translational profile of ASPM,ENSG00000066279,+ (+ = 0.9 to 1.5)
same,renormalizing the translational profile of RASSF1,ENSG00000068028,− (− = <0.9)
same,renormalizing the translational profile of PABPC1,ENSG00000070756,− (− = <0.9)
same,renormalizing the translational profile of RPL31,ENSG00000071082,+ (+ = 0.9 to 1.5)
same,renormalizing the translational profile of PLD1,ENSG00000075651,− (− = <0.9)
same,renormalizing the translational profile of EDN1,ENSG00000078401,− (− = <0.9)
same,renormalizing the translational profile of AURKA,ENSG00000087586,− (− = <0.9)
same,renormalizing the translational profile of EPB41L1,ENSG00000088367,− (− = <0.9)
same,renormalizing the translational profile of RPL6,ENSG00000089009,− (− = <0.9)
same,renormalizing the translational profile of P2RX7,ENSG00000089041,++ (++ = 1.5 to 2.0)
same,renormalizing the translational profile of KDM2B,ENSG00000089094,− (− = <0.9)
same,renormalizing the translational profile of RPLP0,ENSG00000089157,− (− = <0.9)
same,renormalizing the translational profile of IGBP1,ENSG00000089289,− (− = <0.9)
same,renormalizing the translational profile of IRAK3,ENSG00000090376,− (− = <0.9)
same,renormalizing the translational profile of PABPC4,ENSG00000090621,− (− = <0.9)
same,renormalizing the translational profile of FMO2,ENSG00000094963,+++ (+++ = >2.0)
same,renormalizing the translational profile of ACOT7,ENSG00000097021,− (− = <0.9)
same,renormalizing the translational profile of ATP5D,ENSG00000099624,− (− = <0.9)
same,renormalizing the translational profile of LGALS1,ENSG00000100097,+ (+ = 0.9 to 1.5)
same,renormalizing the translational profile of EIF3L,ENSG00000100129,− (− = <0.9)
same,renormalizing the translational profile of RPL3,ENSG00000100316,+ (+ = 0.9 to 1.5)
same,renormalizing the translational profile of CEP192,ENSG00000101639,− (− = <0.9)
same,renormalizing the translational profile of AMMECR1,ENSG00000101935,− (− = <0.9)
same,renormalizing the translational profile of PLP2,ENSG00000102007,− (− = <0.9)
same,renormalizing the translational profile of EIF3E,ENSG00000104408,− (− = <0.9)
same,renormalizing the translational profile of EEF1D,ENSG00000104529,− (− = <0.9)
same,renormalizing the translational profile of C19orf53,ENSG00000104979,− (− = <0.9)
same,renormalizing the translational profile of GLTSCR2,ENSG00000105373,+ (+ = 0.9 to 1.5)
same,renormalizing the translational profile of RAB3D,ENSG00000105514,+ (+ = 0.9 to 1.5)
same,renormalizing the translational profile of RPL18A,ENSG00000105640,+ (+ = 0.9 to 1.5)
same,renormalizing the translational profile of COMP,ENSG00000105664,− (− = <0.9)
same,renormalizing the translational profile of GLCCI1,ENSG00000106415,+ (+ = 0.9 to 1.5)
same,renormalizing the translational profile of CORO2A,ENSG00000106789,− (− = <0.9)
same,renormalizing the translational profile of GDF10,ENSG00000107623,− (− = <0.9)
same,renormalizing the translational profile of RPL28,ENSG00000108107,+ (+ = 0.9 to 1.5)
same,renormalizing the translational profile of RPL19,ENSG00000108298,− (− = <0.9)
same,renormalizing the translational profile of RASD1,ENSG00000108551,− (− = <0.9)
same,renormalizing the translational profile of NAT9,ENSG00000109065,− (− = <0.9)
same,renormalizing the translational profile of RPL34,ENSG00000109475,+ (+ = 0.9 to 1.5)
same,renormalizing the translational profile of CRYAB,ENSG00000109846,− (− = <0.9)
same,renormalizing the translational profile of GAPDH,ENSG00000111640,− (− = <0.9)
same,renormalizing the translational profile of C12orf57,ENSG00000111678,− (− = <0.9)
same,renormalizing the translational profile of MDFI,ENSG00000112559,− (− = <0.9)
same,renormalizing the translational profile of HBEGF,ENSG00000113070,− (− = <0.9)
same,renormalizing the translational profile of RPL24,ENSG00000114391,− (− = <0.9)
same,renormalizing the translational profile of EEF1B2,ENSG00000114942,− (− = <0.9)
same,renormalizing the translational profile of IFIH1,ENSG00000115267,+ (+ = 0.9 to 1.5)
same,renormalizing the translational profile of DPH5,ENSG00000117543,− (− = <0.9)
same,renormalizing the translational profile of PPL,ENSG00000118898,− (− = <0.9)
same,renormalizing the translational profile of PLEKHG1,ENSG00000120278,− (− = <0.9)
same,renormalizing the translational profile of LIAS,ENSG00000121897,− (− = <0.9)
same,renormalizing the translational profile of GPSM2,ENSG00000121957,− (− = <0.9)
same,renormalizing the translational profile of RPL21,ENSG00000122026,+ (+ = 0.9 to 1.5)
same,renormalizing the translational profile of RPL5,ENSG00000122406,+ (+ = 0.9 to 1.5)
same,renormalizing the translational profile of INHBA,ENSG00000122641,− (− = <0.9)
same,renormalizing the translational profile of CIT,ENSG00000122966,+ (+ = 0.9 to 1.5)
same,renormalizing the translational profile of RPL23,ENSG00000125691,+ (+ = 0.9 to 1.5)
same,renormalizing the translational profile of LAMP5,ENSG00000125869,− (− = <0.9)
